Data from publication PMC7450057, “Enhancing intracellular accumulation and target engagement of PROTACs with reversible covalent chemistry” (Nature Communications, 2020).
“And” between values parts separate entries of the source, which are not always exact repeats. Equal values may be shown once.

Tests used:
MOLM-14 cells = experiment: AlamarBlue cell viability assay, MOLM-14; details: Supplementary Figure 7, replicates
Protocol: The IC50 was calculated using GraphPad Prism software with a four-parameter dose-response curve fit.

BTK = BTK (Homo sapiens, UniProt Q06187); experiment: BTK degradation in MOLM-14 cells (western blot); assay type: cell-based; design: endogenous in cells; host or cells: MOLM-14; details: MOLM-14 cells, 200 nM, 24 h incubation
Sequence of BTK (Q06187 whole entry): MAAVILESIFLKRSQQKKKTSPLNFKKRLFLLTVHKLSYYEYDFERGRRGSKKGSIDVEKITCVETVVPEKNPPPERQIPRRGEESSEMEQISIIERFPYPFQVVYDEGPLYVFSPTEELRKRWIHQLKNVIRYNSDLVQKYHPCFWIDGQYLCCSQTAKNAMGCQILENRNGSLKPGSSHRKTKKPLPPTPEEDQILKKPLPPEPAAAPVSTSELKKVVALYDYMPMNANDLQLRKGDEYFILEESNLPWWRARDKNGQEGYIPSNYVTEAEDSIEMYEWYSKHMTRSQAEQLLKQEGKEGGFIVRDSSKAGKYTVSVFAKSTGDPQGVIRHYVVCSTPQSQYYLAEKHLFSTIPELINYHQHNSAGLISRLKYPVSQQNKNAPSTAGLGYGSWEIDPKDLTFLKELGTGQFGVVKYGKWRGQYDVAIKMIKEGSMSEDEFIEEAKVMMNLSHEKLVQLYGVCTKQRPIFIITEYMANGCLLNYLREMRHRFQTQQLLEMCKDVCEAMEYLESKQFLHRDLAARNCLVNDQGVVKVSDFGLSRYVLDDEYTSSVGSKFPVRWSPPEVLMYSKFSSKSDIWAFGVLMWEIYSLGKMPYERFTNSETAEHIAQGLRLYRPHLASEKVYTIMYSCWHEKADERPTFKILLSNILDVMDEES

Row | Degradation at 200 nM (percentage of BTK degradation) (BTK) [%] | Compound | Cell viability, MOML-14 (MOLM-14 cells; drug concentration 1.00E-05 M) | Cell viability, MOML-14 (MOLM-14 cells; drug concentration 1.60E-08 M) | Cell viability, MOML-14 (MOLM-14 cells; drug concentration 2.00E-06 M) | Cell viability, MOML-14 (MOLM-14 cells; drug concentration 3.20E-09 M) | Cell viability, MOML-14 (MOLM-14 cells; drug concentration 4.00E-07 M) | Cell viability, MOML-14 (MOLM-14 cells; drug concentration 6.40E-10 M) | Cell viability, MOML-14 (MOLM-14 cells; drug concentration 8.00E-08 M)
1 | 39 | CN(CCOCCNC(=O)CNc1cccc2c1C(=O)N(C1CCC(=O)NC1=O)C2=O)C(C)(C)C=C(C#N)C(=O)N1CCC[C@@H](n2nc(-c3ccc(Oc4ccccc4)cc3)c3c(N)ncnc32)C1 (stereo partly shown) [RC-3] | 6.131 and 2.152 and 5.745 and 1.563 and 5.644 | 83.11 and 86.5611 and 70.0365 and 75.0101 and 88.6317 | 14.9208 and 11.551 and 11.6931 and 9.785 and 11.754 | 76.8575 and 93.7881 and 76.4921 and 85.0995 and 82.1762 | 53.106 and 44.4377 and 39.7686 and 41.149 and 48.4166 | 89.9919 and 78.9687 and 69.3463 and 82.7852 and 87.4746 | 71.5794 and 85.3634 and 65.8344 and 81.7296 and 79.4965
2 | 43 | CN(CCOCCOCCNC(=O)CNc1cccc2c1C(=O)N(C1CCC(=O)NC1=O)C2=O)C(C)(C)C=C(C#N)C(=O)N1CCC[C@@H](n2nc(-c3ccc(Oc4ccccc4)cc3)c3c(N)ncnc32)C1 (stereo partly shown) [RC-4] | 7.995 and 4.587 and 6.948 and 0.6662 and 4.873 | 106.917 and 98.9797 and 102.749 and 88.7772 and 88.111 | 23.0509 and 25.7918 and 22.8415 and 19.1107 and 18.6919 | 98.1803 and 95.5954 and 92.3367 and 95.7248 and 84.8751 | 68.7719 and 62.8902 and 62.3953 and 62.1669 and 56.6088 | 92.8506 and 90.1858 and 94.6399 and 97.7806 and 77.071 | 89.7861 and 80.8588 and 84.9703 and 89.1389 and 65.2315
